We go through four compounds from patent publication US8362235B2, “Carboxamide compounds and methods for using the same” (Rigel Pharmaceuticals, Inc., priority 2009, dated 2013).

Some results are limits rather than exact numbers.

In the test the target is AMPK. The test is described as follows: AMPK activation, enzyme-linked immunosorbent assay. Particulars: ELISA. On the procedure: Compounds 1-8 were assayed for their ability to activate AMPK using an enzyme-linked immunosorbent assay.
As for `N#Cc1ccc(CN2CCC(NC(=O)c3ccc(C(=O)N4CCN(Cc5ccc(F)cc5)CC4)cn3)CC2)cc1` [Compound 2, N-(1-(4-cyanobenzyl)piperidin-4-yl)-5-(4-(4-fluorobenzyl)piperazine-1-carbonyl)picolinamide], the EC50 is less than 500 nM.

`N#Cc1ccc(CN2CCC(NC(=O)c3ccc(C(=O)N4CCN(Cc5ccc(C(F)(F)F)cc5)CC4)cn3)CC2)cc1` [Compound 3, N-(1-(4-cyanobenzyl)piperidin-4-yl)-5-(4-(4-(trifluoromethyl)benzyl)piperazine-1-carbonyl)picolinamide] had an EC50 of less than 500 nM.

`N#Cc1ccc(CN2CC[C@H](NC(=O)c3ccc(C(=O)N4CCN(c5ccc(Cl)cc5)CC4)cn3)C2)cc1` [Compound 6, (S)-5-(4-(4-chlorophenyl)piperazine-1-carbonyl)-N-(1-(4-cyanobenzyl)pyrrolidin-3-yl)picolinamide]: the half-maximal effective concentration (EC50) was 500 to 1000 nM.

`O=C(NC1CCN(Cc2ccc(C(F)(F)F)cc2)C1)c1ccc(C(=O)N2CCN(c3ccc(Cl)cc3)CC2)cn1` (stereo not shown) [Compound 8, 5-(4-(4-chlorophenyl)piperazine-1-carbonyl)-N-(1-(4-(trifluoromethyl)benzyl)pyrrolidin-3-yl)picolinamide] returned an EC50 of 1000 to 5000 nM.
